In patent publication US9408848B2, “Fluorescent CDK inhibitors for treatment of cancer” (Georgetown University, priority 2008, dated 2016):
Entries after “also recorded” stand apart in the source; their conditions may differ. Read-outs that look alike come from different tables or passages of the source.

Columns and labels:
CDK7/cyclinH/MATI = target: T1, CDK7/cyclinH/MATI (Homo sapiens, UniProt P50613); assay: Kinase assay ([γ-33P]-ATP, histone H1); type: biochemical; details: for inhibition at 0.1 µM: read-out: % inhibition of kinase activity, CDK7/cyclinH/MATI
T1 construct: purchased Millipore, Dundee, UK (screening service)
Experimental: . The final reaction was carried out in a 25 μL solution. The respective kinases (at […] were incubated with 8 mM MOPS (pH 7.0), 0.2 mM EDTA, 0.1 mg/ml histone H1, 10 mM MgAcetate and [γ-33P-ATP] (specific activity approximately 500 cpm/pmol, concentration as required). The reaction was then initiated by the addition of the MgATP mix. The reaction was stopped after 40 min of incubation by adding 5 μL of a 3% phosphoric acid solution. 10 μL of the reaction was spotted onto a P30 filter mat and washed 3 times for 5 min in 75 mM phosphoric acid and one in methanol prior to drying and counted radioactivity by scintillation counting. […]. Table 1 summarizes the cytotoxic effects of VMY compounds and its controls on breast cancer cell line.
(§1) Kinase selectivity of compounds VMY-1-101 and VMY-1-103 were screened at Millipore, Dundee, UK. Briefly assays were performed with a Biomek 2000 Laboratory Automation Workstation in a 96-well format (Beckman instruments, Palo Alto, Calif., U.S.A) for 40 min at ambient temperature in 25 μL incubations using [γ-^33P]-ATP. In a final reaction volume of 25 μL corresponding CDK/cyclin (h) (5-10 mU) was incubated with 8 mM MOPS pH 7.0, 0.2 mM EDTA, 0.1 mg/mL histone H1, 10 mM MgAcetate and [γ-^33P-ATP](specific activity approx. 500 cpm/pmol, concentration as required). The reaction was initiated by the addition of the MgATP mix. After incubation for 40 min at room temperature, the reaction was stopped by the addition of 5 μL of a 3% phosphoric acid solution. From the reaction, 10 μL was spotted onto a P30 filtermat and washed three times for 5 minutes in 75 mM phosphoric acid and once in methanol prior to dying and scintillation counting.

MDA-MB-231 [1] = assay: Cell viability assay (WST-1); type: cell-based, human; details: read-out: IC50 (concentration yielding 50% growth inhibition), MDA-MB-231, WST-1, 48 h
Experimental: (§2) (10%), 2 mM L-glutamine, and 50 μg/mL each of antibiotics, namely penicillin, streptomycin, and neomycin at 37° C. in a humidified incubator containing 5% CO2
(§3) Briefly human breast cancer cells were seeded into a 96-well plate at 3000 cells per well in DMEM containing 10% FBS. Following 24 hours attachment period, compounds were dissolved in DMSO and serially diluted in tissue culture media and added to the cells in triplicate, and incubated for 48 h at 37° C. Control cells were treated with equal amount of DMSO. After 48 h incubation, cell viability was measured by WST-1 assay according to the manufacturer's instructions (Roche). […] The formazan absorbance, which correlates to the number of living cells, was measured at 450 nm and 630 nm as reference filter using a microplate reader. (Ultramark, Microplate Imaging System, Bio-Rad). The IC50 was calculated from the graph of the log of the compound concentration versus the fraction of the surviving cells.

MCF-7 [2] = assay: Cell cycle analysis by flow cytometry (propidium iodide); type: cell-based, human; details: for % G1 / % S / % Sub-G1: MCF-7, 24 hrs, 5 μM
Experimental: (§4) 5 μM concentrations were used for all drugs tested. The cells were exposed to the vehicle (DMSO) or […] of the CDK inhibitors for 24 hrs. The cell cycle distribution was then assessed using standard procedures.

MDA-MB-231 [3] = assay: as above; type: cell-based, human; details: for % G1 / % S / % Sub-G1: MDA-MB-231, 24 hrs, 5 μM
Experimental: as §4

CL 10.3 = assay: Effect on multidrug resistant cell lines, IC50 72 hours; type: cell-based; details: for IC50: 72 h, CL 10.3, Breast (MDR); for activity in multidrug resistance cell line: MCF7 versus CL 10.3; for CL 10.3 IC50/MCF-7 IC50: ratio, 72 hours
Source text: (§5) The effect of VMY-1-103 on multidrug resistant cell lines was studied and compared with paclitaxel. Table 4 represents the IC50 of the compounds in the individual cell lines along with the ratio of the difference.

MCF-7 [4] = assay: as above; type: cell-based; details: Homo sapiens, MCF7, 72 h; MCF-7, Breast
Source text: as §5

phospho-Cdc2 = assay: Western blot of G2/M cell cycle proteins; type: cell-based, human; details: MDA-MB-231, 10 μM, 1-24 h
Experimental: The expression levels principal component proteins, such as, phospho-Cdc2, Cdc2 and cyclin B were specific assessed.
Western blotting was performed according to literature procedure. […] Lysates were cleared by centrifugation at 12000 rpm for 15 min at 4° C. and protein was estimated by detergent compatible BCA protein assay kit (Pierce). Equivalent amounts of total proteins were resolved by SDS-PAGE (10%) and transferred to PVDF membrane. Membranes were blocked by 5% non-fat powdered milk in TBST overnight. Membranes were incubated with indicated primary antibodies for 2 hours followed by HRP-conjugated secondary antibodies for 1 hr and developed using enhanced chemiluminescence kit (Perkin Elmer).

MDA-MB-231 cells [5] = assay: Apoptotic signaling, Western blot of apoptosis related proteins; type: cell-based, human
Experimental: In order to understand whether VMY-1-101 and VMY-1-103 compounds were able to induce apoptotic cell death, the expression of anti- and pro-apoptotic proteins in MDA-MB-231 cells following treatment with 10 μM drugs for 48 hours was evaluated first. […] This is further confirmed with proapoptotic 116 kDa poly (ADP-ribose) polymerase protein (PARP) into its 89-kDa fragments. […].
Western blotting was performed according to literature procedure. In brief, cell pellets were collected at the indicated times after treatment with compounds, suspended in 100 μL of lysis buffer (50 mM Tris-HCl, 150 mM NaCl, 1 mM EGTA, 1 mM EDTA, 20 mM NaF, 100 mM Na3VO4, 0.5% NP-40, 1% Triton X-100, 1 mM PMSF, 5 μg/ml aprotinin, 5 μg/ml leupeptin), vortexed twice and incubated in an ice bath for 30 min. Lysates were cleared by centrifugation at 12000 rpm for 15 min at 4° C. and protein was estimated by detergent compatible BCA protein assay kit (Pierce). Equivalent amounts of total proteins were resolved by SDS-PAGE (10%) and transferred to PVDF membrane. Membranes were blocked by 5% non-fat powdered milk in TBST overnight. Membranes were incubated with indicated primary antibodies for 2 hours followed by HRP-conjugated secondary antibodies for 1 hr and developed using enhanced chemiluminescence kit (Perkin Elmer).

MCF-7 [6] = assay: Cell viability assay (WST-1); type: cell-based, human; details: MCF-7, WST-1, 48 h
Experimental: as §2, §3

CDK1/cyclinB = target: T2, CDK1/cyclinB (Homo sapiens, UniProt P06493); assay: Kinase assay ([γ-33P]-ATP, histone H1); type: biochemical; details: 0.1 µM
T2 construct: purchased Millipore, Dundee, UK (screening service)
Experimental: (§6) The final reaction was carried out in a 25 μL solution.
as §1, with “Briefly” for “Kinase selectivity of compounds VMY-1-101 and VMY-1-103 were screened at Millipore, Dundee, UK. Briefly”, “solution.” for “solution. From the reaction, 10 μL was spotted onto a P30 filtermat and washed three times for 5 minutes in 75 mM phosphoric acid and once in methanol prior to dying and scintillation counting.”

CDK3/cyclinE = target: T3, CDK3/cyclinE (Homo sapiens, UniProt Q00526); assay: Kinase assay ([γ-33P]-ATP, histone H1); type: biochemical; details: compound 0.1 μM
T3 construct: purchased Millipore, Dundee, UK (screening service)
Experimental: as §6
as §1, with “Briefly” for “Kinase selectivity of compounds VMY-1-101 and VMY-1-103 were screened at Millipore, Dundee, UK. Briefly”, “solution.” for “solution. From the reaction, 10 μL was spotted onto a P30 filtermat and washed three times for 5 minutes in 75 mM phosphoric acid and once in methanol prior to dying and scintillation counting.”

MDA-MB-231 cells [7] = assay: Reversibility of antiproliferative effect (24 h/MC/48 h, cell cycle by flow cytometry); details: MDA-MB-231, 5 μM and 10 μM, 24 h then 48 h drug free medium
Experimental: The cell cycle distribution was then analyzed by flow cytometry.
The effect of CDK inhibitors on cell cycle progression was analyzed by flow cytometry. […] Cells were trypsinized, centrifuged (2000 rpm) and cell pellets were collected. […] The cell cycle distribution was evaluated on DNA plots using the Modfit software (Verity softwarehouse, Topsham, Me.).

T1 sequence (P50613 whole entry): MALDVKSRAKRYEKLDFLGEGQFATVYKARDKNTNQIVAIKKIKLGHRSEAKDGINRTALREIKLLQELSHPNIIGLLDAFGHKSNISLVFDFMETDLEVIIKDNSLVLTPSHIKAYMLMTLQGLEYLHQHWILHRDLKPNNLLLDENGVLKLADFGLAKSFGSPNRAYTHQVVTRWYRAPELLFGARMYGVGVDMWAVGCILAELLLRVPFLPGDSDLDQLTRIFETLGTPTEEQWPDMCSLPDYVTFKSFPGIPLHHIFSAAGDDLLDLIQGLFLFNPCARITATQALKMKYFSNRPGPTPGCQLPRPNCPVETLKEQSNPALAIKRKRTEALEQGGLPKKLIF
T1 sequence (P51946 whole entry partner): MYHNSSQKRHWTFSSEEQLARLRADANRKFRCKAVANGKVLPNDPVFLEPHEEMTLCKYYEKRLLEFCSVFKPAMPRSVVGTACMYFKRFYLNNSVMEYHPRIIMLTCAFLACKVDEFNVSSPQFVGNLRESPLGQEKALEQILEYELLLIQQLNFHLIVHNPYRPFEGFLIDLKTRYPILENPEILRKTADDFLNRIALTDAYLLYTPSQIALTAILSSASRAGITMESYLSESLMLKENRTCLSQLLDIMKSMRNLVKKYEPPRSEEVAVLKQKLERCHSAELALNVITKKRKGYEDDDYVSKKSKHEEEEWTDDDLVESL
T1 sequence (P51948 whole entry partner): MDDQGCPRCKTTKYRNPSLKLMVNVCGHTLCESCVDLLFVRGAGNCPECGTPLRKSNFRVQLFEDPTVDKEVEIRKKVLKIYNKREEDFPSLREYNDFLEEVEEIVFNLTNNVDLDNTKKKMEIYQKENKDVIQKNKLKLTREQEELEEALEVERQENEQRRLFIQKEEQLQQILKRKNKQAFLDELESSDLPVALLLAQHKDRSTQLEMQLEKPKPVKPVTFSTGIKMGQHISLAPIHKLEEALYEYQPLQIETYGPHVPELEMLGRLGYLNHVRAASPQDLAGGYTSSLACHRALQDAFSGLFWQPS
T3 sequence (Q00526 whole entry): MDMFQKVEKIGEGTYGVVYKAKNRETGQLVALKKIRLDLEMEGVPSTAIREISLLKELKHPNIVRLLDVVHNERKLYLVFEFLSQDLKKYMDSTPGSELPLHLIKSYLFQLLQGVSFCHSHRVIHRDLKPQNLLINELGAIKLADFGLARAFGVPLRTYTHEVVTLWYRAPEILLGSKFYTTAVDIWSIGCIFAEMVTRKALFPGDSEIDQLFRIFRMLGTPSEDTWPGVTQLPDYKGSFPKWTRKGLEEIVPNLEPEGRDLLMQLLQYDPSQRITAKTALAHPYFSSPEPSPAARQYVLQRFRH
T3 sequence (P24864 whole entry partner): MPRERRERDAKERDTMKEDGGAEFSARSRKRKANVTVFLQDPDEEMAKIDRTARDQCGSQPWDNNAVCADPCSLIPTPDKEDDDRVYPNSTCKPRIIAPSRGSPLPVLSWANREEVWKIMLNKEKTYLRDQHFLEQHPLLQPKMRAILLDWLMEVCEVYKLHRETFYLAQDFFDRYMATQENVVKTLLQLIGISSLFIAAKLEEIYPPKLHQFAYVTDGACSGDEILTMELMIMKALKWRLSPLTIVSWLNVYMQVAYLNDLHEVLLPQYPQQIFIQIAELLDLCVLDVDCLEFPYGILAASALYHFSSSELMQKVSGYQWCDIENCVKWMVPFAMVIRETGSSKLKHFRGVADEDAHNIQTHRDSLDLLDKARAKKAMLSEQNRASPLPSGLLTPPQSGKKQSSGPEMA
T2 sequence (P06493 whole entry): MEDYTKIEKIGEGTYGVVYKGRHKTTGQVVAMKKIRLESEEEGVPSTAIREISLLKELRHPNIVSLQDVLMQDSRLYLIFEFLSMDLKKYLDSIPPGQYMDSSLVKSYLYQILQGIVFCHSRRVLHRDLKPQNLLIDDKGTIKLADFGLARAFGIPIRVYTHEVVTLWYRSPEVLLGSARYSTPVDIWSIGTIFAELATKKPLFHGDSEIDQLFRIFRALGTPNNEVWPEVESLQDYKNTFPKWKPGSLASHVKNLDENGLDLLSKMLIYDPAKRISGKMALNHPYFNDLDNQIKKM
T2 sequence (P14635 whole entry partner): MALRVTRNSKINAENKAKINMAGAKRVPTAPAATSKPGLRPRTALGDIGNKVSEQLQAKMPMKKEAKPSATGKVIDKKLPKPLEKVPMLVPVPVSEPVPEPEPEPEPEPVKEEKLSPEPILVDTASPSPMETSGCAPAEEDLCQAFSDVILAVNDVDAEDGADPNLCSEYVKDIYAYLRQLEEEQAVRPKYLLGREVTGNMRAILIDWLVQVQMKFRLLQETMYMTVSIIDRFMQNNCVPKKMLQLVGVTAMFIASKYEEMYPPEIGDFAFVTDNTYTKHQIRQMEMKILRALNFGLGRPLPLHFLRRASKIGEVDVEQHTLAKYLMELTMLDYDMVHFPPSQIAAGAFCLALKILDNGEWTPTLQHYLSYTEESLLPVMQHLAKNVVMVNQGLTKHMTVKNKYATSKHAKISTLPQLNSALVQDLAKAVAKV

SMILES	IC50 (MDA-MB-231 [1]; Homo sapiens)	IC50 (CL 10.3)	CL 10.3 IC50/MCF-7 IC50 (CL 10.3)	IC50 (MCF-7 [4])	% G1 (MCF-7 [2])	% S (MCF-7 [2])	% Sub-G1 (MCF-7 [2])	% G1 (MDA-MB-231 [3])	% S (MDA-MB-231 [3])	% Sub-G1 (MDA-MB-231 [3])	expression of phospho-Cdc2 (T161, Y15) (phospho-Cdc2)	also measured
CC(C)[C@H](CO)Nc1nc(Nc2ccc(C(=O)O)c(Cl)c2)c2ncn(C(C)C)c2n1 [Purvalanol B, reference compound]					64.37 ± 0.57%	20.54 ± 0.57%	1.10 ± 0.03%	58.69 ± 0.54%	29.86 ± 0.70%	1.19 ± 0.01%	no affect on the phospho-Cdc2 expression; also recorded: does not show any affect on expression of phosphor-Cdc2	% inhibition of kinase activity, CDK1/cyclinB (CDK1/cyclinB): 78 ± 6%; % inhibition of kinase activity, CDK3/cyclinE (CDK3/cyclinE): 89 ± 0%; % inhibition of kinase activity, CDK7/cyclinH/MATI (CDK7/cyclinH/MATI; compound 0.1 μM): 66 ± 1%; IC50 (MCF-7 [6]; read-out: IC50 (concentration yielding 50% growth inhibition)): > 100 µM; IC50 (MDA-MB-231 [1]): > 100 µM
CC(=O)O[C@H]1C(=O)[C@@]2(C)[C@H]([C@H](OC(=O)c3ccccc3)[C@]3(O)C[C@H](OC(=O)[C@H](O)[C@@H](NC(=O)c4ccccc4)c4ccccc4)C(C)=C1C3(C)C)[C@]1(OC(C)=O)CO[C@@H]1C[C@@H]2O [Paclitaxel, reference compound]		47.5 µM	2375	0.002 µM								
CC[C@H](CO)Nc1nc(NCc2ccccc2)c2ncn(C(C)C)c2n1 [Roscovitine, 2-(R)-(1-ethyl-2-hydroxyethylamino)-6-benzylamino-9-isopropylpurine, reference compound]					63.83 ± 0.58%	19.88 ± 0.74%	0.73 ± 0.02%	57.59 ± 0.44%	26.29 ± 0.32%	1.22 ± 0.06%		inhibition at 0.1 µM (CDK7/cyclinH/MATI): 26 ± 5%; change in apoptosis protein levels (MDA-MB-231 cells [5]; MDA-MB-231, even at 40 μM): no change in protein levels; reversibility of G2/M arrest / antiproliferative effect (MDA-MB-231 cells [7]): went back to the normal stage after post incubation

Second part, led by results:

IC50 (MDA-MB-231 [1]; Homo sapiens)	IC50 (CL 10.3)	CL 10.3 IC50/MCF-7 IC50 (CL 10.3)	IC50 (MCF-7 [4])	SMILES	% G1 (MCF-7 [2])	% S (MCF-7 [2])	% Sub-G1 (MCF-7 [2])	% G1 (MDA-MB-231 [3])	% S (MDA-MB-231 [3])	% Sub-G1 (MDA-MB-231 [3])	expression of phospho-Cdc2 (T161, Y15) (phospho-Cdc2)	also measured
4.06 ± 1.32 µM	44.3 µM	9.8	4.5 µM	CC(C)[C@H](CO)Nc1nc(Nc2ccc(C(=O)NCCNS(=O)(=O)c3cccc4c(N(C)C)cccc34)c(Cl)c2)c2ncn(C(C)C)c2n1 [VMY-1-103, 2-Chloro-N-[2-(5-dimethylamino-naphthalene-1-sulfonylamino)-ethyl]-4-[2-(1-hydroxymethyl-2-methyl-propylamino)-9-isopropyl-9H-purin-6-ylamino]-benzamide]	61.02 ± 0.28%	16.26 ± 0.24%	2.09 ± 0.08%	51.87 ± 0.80%	25.15 ± 0.53%	2.17 ± 0.18%	decrease the phosphorylation level of G2/M checkpoint proteins; also recorded: time-dependent decrease in expression of phospho-Cdc2	inhibition at 0.1 µM (CDK7/cyclinH/MATI; compound 0.1 μM): 69 ± 2%; effect on cell cycle progression (G2/M phase) (MCF-7 [2]; MCF-7, 5, 10 μM, 24 hrs): induced the cell cycle progression in G2/M phase; effect on cell cycle progression (G2/M phase) (MDA-MB-231 [3]; MDA-MB-231, 5, 10 μM, 24 hrs): induced the cell cycle progression in G2/M phase; activity in multidrug resistance cell line (CL 10.3): moderate activity in a multidrug resistance cell line; activity in multidrug resistance cell line (CL 10.3; listed as VMY-103): comparable activity in both cell lines; substrate for p-glycoprotein (CL 10.3; inferred from MDR cell line (Table 4)): not a substrate for p-glycoprotein; PARP cleavage (MDA-MB-231 cells [5]; MDA-MB-231, 10 μM, 48 hours): moderate cleavage of the 116-kDa full length PARP into an 89-kDa fragment; protein level of full length caspase 3 and 7 (MDA-MB-231 cells [5]; MDA-MB-231, 10 μM, 48 hours): decrease in protein level of full length caspase 3 and 7
> 100 µM				CN(C)c1cccc2c(S(=O)(=O)NCCN)cccc12 [Dansyl ethylenediamine, reference compound]								IC50 (MCF-7 [6]; Homo sapiens, MCF7, read-out: IC50 (concentration yielding 50% growth inhibition)): > 100 µM
